Inhibition data for six molecules are collected here from US20260364184A1, “COMPOUND BASED ON OXOISOINDOLINYL-SUBSTITUTED TETRAHYDROPYRIMIDINE-DIONE AND USE THEREOF” (GLUETACS THERAPEUTICS (SHANGHAI) CO., LTD., priority 2023, published 2026).

The subject of experiment [1] is Human Multiple myeloma cell line (MM.1S). Kind of experiment: Inhibition of MM.1S cell proliferation (CellTiter luminescent viability). Format: cell-based. The following applies: Homo sapiens, MM1.S, Table IG1, FAK inhibitor-based, 96 hours. The gist of the method:
(§1)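 IC50 is fitted from luminescent viability (CellTiter-Meiluncell) curves. Nine-point, 5-fold dilution series (top stock 2000 μM) are added at 0.5 μL per 100 μL medium to cells plated the day before, with growth at 37 °C and 5% CO2.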

Experiment [2] concerns Human myeloid monocytic leukemia cell line (MV-4-11). Kind of experiment: Inhibition of MV-4-11 cell proliferation (CellTiter luminescent viability). In kind it is cell-based. The settings on record: Homo sapiens, MV4-11, Table IG2, FAK inhibitor-based, 96 hours. The procedure, abridged:
as §1

Experiment [3] addresses T1, human Cereblon WT GST-tagged protein (CRBN) (Homo sapiens, UniProt Q96SW2).
T1 construct: purchased CISBIO 64BDCRBNPEH
Kind of experiment: CRBN binding by HTRF (Cereblon binding kit). The following applies: for inhibition at 0.5 µM: read-out: Inhibition Rate at 0.5 μM (%); for inhibition at 2 µM: read-out: Inhibition Rate at 2 μM (%). The procedure:
The CEREBLON BINDING kits (specification: 10,000 tests; product number: Catalog #64BDCRBNPEH; CISBIO company) was used to determine the CRBN binding ability of the compounds to be tested through a HTRF method (homogeneous time-resolved fluorescence). The specific methods are as follows: • 1. According to the instructions of the CEREBLON BINDING KITS, serial dilutions were performed for the test compounds of the present disclosure (including the compounds in Table 1, Table 2, and Examples 1-468) and for lenalidomide. Specifically, diluent #9 (1×) solution was used as the diluent, and multiple concentration gradients were set. The dilution operation can be performed according to one of the following two methods: • (1) The first dilution method: The test compounds of the present disclosure (including the compounds in Table 1, Table 2, and Examples 1-468) were subjected to 5-fold serial dilutions starting from a highest concentration of 40 μM, resulting in a total of 7 concentrations from high to low (40, 8, 1.6, 0.32, 0.064, 0.0128, 0.00256 μM). Subsequently, the diluted test compounds and corresponding detection reagents were added to each well of a 96-well plate, resulting in final test compound concentrations of 10, 2, 0.4, 0.08, 0.016, 0.0032, and 0.00064 μM, respectively. • (2) As an alternative, a second dilution method can be used: The test compounds of the present disclosure (including the compounds in Table 1, Table 2, and Examples 1-468) were subjected to 4-fold gradient dilutions starting from a highest concentration of 8 μM, resulting in 2 concentrations (8 μM, 2 μM). Into the 96-well plate, the diluted test compounds and corresponding detection reagents were added, resulting in final test compound concentrations of 2 μM and 0.5 μM, respectively. The experimental procedure is described below using the diluted 8 μM test compound and lenalidomide solutions as examples. • 2. 2.5 μL of the above 8 μM of the tested compounds and lenalidomide solution, as well as the same volume of diluent #9 (1×) solution (solvent control group, Std0) were added to each well of a 96-well plate, respectively. Then, 2.5 μL of human Cereblon WT GST-tagged protein solution was added to each well. Finally, 5 μL of the thoroughly mixed Thalidomide-Re reagent and GST Eu antibody working solution were added to each of the aforementioned wells. The final concentration of the tested compounds and lenalidomide in each well was 2 μM. • 3. The blank control wells were sequentially added with 2.5 μL of diluent #9 (1×) solution, 2.5 μL of PROTAC binding buffer, and 5 μL of thoroughly mixed Thalidomide-Re reagent and GST Eu antibody working solution. • 4. After sealing and incubating the solutions in the aforementioned wells at room temperature for 3 hours, the absorbance values at emission wavelengths of 620 nm and 665 nm were detected by the HTRF method using a Spark microplate reader (V3.1 SP1).
The corresponding CRBN binding inhibition rate was calculated using the following method:
Rcompound=OD 665 nmcompound/OD 620 nmcompound−OD 665 nmcontrol/OD 620 nmcontrol
RStd0=OD 665 nmStd0/OD 620 nmStd0−OD 665 nmcontrol/OD 620 nmcontrol inhibition rate (%)=(1−Rcompound/RStd0)*100
Note: OD 665 nmcompound is the absorbance value of each well of the compounds to be tested of the present disclosure at an emission wavelength of 665 nm. OD 620 nmcompound is the absorbance value of each well of the compounds to be tested of the present disclosure at an emission wavelength of 620 nm. OD 665 nmcontrol is the absorbance value of the blank control well at an emission wavelength of 665 nm. OD 620 nmcontrol is the absorbance value of the blank control well at an emission wavelength of 620 nm. OD 665 nmStd0 is the absorbance value of the solvent control well at an emission wavelength of 665 nm. OD 620 nmStd0 is the absorbance value of the solvent control well at an emission wavelength of 620 nm.
A general note: TR-FRET usually uses a lanthanide donor and a delayed reading to cut background.

T1 sequence (Q96SW2 whole entry): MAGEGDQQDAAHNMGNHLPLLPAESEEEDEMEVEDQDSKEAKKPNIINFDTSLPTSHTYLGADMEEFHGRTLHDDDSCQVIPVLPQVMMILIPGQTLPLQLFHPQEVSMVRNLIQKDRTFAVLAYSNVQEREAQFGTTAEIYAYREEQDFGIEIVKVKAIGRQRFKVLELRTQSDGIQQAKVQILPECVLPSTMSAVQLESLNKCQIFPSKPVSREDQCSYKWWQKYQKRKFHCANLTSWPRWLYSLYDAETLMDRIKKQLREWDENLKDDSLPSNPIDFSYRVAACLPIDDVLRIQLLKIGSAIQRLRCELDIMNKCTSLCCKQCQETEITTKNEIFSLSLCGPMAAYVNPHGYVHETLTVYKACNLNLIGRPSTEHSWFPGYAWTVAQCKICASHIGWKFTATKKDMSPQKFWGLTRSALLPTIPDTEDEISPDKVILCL

As for `CNC(=O)c1ccccc1Nc1cc(Nc2ccc(N3CCN(Cc4ccc5c(c4)CN(N4CCC(=O)NC4=O)C5=O)CC3)cc2OC)ncc1C(F)(F)F` [GT-07660, 2-((2-((4-(4-((2-(2,4-dioxotetrahydropyrimidin-1(2H)-yl)-1-oxoisoindolin-5-yl)methyl)piperazin-1-yl)-2-methoxyphenyl)amino)-5-(trifluoromethyl)pyridin-4-yl)amino)-N-methylbenzamide], the inhibition at 0.01 µM in experiment [1] (10 nM, read-out: Inhibition Rate at 10 nM (%)) lay within 15 to 20%; in experiment [2] (MV-4-11, 10 nM, read-out: Inhibition Rate at 10 nM (%)), 50 to 60%. Moreover, the inhibition at 0.5 µM was in the range of 60 to 80% in experiment [1] (500 nM, read-out: Inhibition Rate at 500 nM (%)); 80 to 100% in experiment [2] (MV-4-11, 500 nM, read-out: Inhibition Rate at 500 nM (%)); 30 to 40% in experiment [3]. Moreover, in experiment [3], the inhibition at 2 µM is 60 to 80%.

`Cc1cc(-c2ccc3c4cnccc4n(C)c3c2)cnc1N1CCN(Cc2ccc3c(c2)CN(N2CCC(=O)NC2=O)C3=O)CC1` [GT-08540, 1-(5-((4-(3-methyl-5-(5-methyl-5H-pyrido[4,3-b]indol-7-yl)pyridin-2-yl)piperazin-1-yl)methyl)-1-oxoisoindolin-2-yl)dihydropyrimidine-2,4 (1H,3H)-dione]: in experiment [3], the inhibition at 0.5 µM was 10 to 20% and the inhibition at 2 µM was 53 to 60%.

In the case of `Cn1c2ccncc2c2ccc(-c3cnc(N4CCN(Cc5ccc6c(c5)CN(N5CCC(=O)NC5=O)C6=O)CC4)c(Cl)c3)cc21` [GT-08541, 1-(5-((4-(3-chloro-5-(5-methyl-5H-pyrido[4,3-b]indol-7-yl)pyridin-2-yl)piperazin-1-yl)methyl)-1-oxoisoindolin-2-yl)dihydropyrimidine-2,4 (1H,3H)-dione], in experiment [3], the inhibition at 0.5 µM lay in the range of 30 to 40% and the inhibition at 2 µM is 60 to 80%.

As to `O=C1CCN(N2Cc3cc(CN4CCN(c5ccn6c(n5)nc5ccccc56)CC4)ccc3C2=O)C(=O)N1` [GT-08565, 1-(5-((4-(benzo[4,5]imidazo[1,2-a]pyrimidin-2-yl)piperazin-1-yl)methyl)-1-oxoisoindolin-2-yl)dihydropyrimidine-2,4 (1H,3H)-dione], in experiment [3], the inhibition at 0.5 µM is 10 to 20% and the inhibition at 2 µM was in the range of 60 to 80%.

Turning to `Cn1ncc(Cl)c1-c1cc(C(=O)N[C@H](CNCC2CCN(c3cccc4c3C(=O)N(N3CCC(=O)NC3=O)C4=O)CC2)Cc2cccc(F)c2)sc1Cl` [GT-08587, (S)-5-chloro-4-(4-chloro-1-methyl-1H-pyrazol-5-yl)-N-(1-(((1-(2-(2,4-dioxotetrahydropyrimidin-1(2H)-yl)-1,3-dioxoisoindolin-4-yl)piperidin-4-yl)methyl)amino)-3-(3-fluorophenyl)propan-2-yl)thiophene-2-carboxamide], in experiment [3], the inhibition at 0.5 µM fell in the range of 10 to 20% and the inhibition at 2 µM is 53 to 60%.

Consider `O=C1CCN(N2C(=O)c3ccc(N4CC5CCC4CN5CC4CCN(c5ccn6c(n5)nc5ccccc56)CC4)cc3C2=O)C(=O)N1` (stereo not shown) [GT-08828, 5-(5-((1-(benzo[4,5]imidazo[1,2-a]pyrimidin-2-yl)piperidin-4-yl)methyl)-2,5-diazabicyclo[2.2.2]octan-2-yl)-2-(2,4-dioxotetrahydropyrimidin-1(2H)-yl)isoindoline-1,3-dione], for which, in experiment [3], the inhibition at 0.5 µM was 20 to 30% and the inhibition at 2 µM lay within 53 to 60%.

Usually inhibition stands for the share of the control response that was lost under treatment.
